Reference: patent publication US11111249B2, “Heteroaryl-pyrazole derivative, and preparation method therefor and medical application thereof” (Jiangsu Hengrui Medicine Co., Ltd., priority 2017, dated 2021)

Assays:
human TLR7 = biological target: T1, human TLR7 (Homo sapiens, UniProt Q9NYK1); assay: Activation of hTLR7 in HEK-Blue hTLR7 stably transfected cells; assay type: cell-based; conditions: OD 620 nm, 6-16 hours
T1 construct: host or cells: HEK-Blue hTLR7 (HEK293-derived) stably transfected cells
T1 sequence (Q9NYK1 27-1049): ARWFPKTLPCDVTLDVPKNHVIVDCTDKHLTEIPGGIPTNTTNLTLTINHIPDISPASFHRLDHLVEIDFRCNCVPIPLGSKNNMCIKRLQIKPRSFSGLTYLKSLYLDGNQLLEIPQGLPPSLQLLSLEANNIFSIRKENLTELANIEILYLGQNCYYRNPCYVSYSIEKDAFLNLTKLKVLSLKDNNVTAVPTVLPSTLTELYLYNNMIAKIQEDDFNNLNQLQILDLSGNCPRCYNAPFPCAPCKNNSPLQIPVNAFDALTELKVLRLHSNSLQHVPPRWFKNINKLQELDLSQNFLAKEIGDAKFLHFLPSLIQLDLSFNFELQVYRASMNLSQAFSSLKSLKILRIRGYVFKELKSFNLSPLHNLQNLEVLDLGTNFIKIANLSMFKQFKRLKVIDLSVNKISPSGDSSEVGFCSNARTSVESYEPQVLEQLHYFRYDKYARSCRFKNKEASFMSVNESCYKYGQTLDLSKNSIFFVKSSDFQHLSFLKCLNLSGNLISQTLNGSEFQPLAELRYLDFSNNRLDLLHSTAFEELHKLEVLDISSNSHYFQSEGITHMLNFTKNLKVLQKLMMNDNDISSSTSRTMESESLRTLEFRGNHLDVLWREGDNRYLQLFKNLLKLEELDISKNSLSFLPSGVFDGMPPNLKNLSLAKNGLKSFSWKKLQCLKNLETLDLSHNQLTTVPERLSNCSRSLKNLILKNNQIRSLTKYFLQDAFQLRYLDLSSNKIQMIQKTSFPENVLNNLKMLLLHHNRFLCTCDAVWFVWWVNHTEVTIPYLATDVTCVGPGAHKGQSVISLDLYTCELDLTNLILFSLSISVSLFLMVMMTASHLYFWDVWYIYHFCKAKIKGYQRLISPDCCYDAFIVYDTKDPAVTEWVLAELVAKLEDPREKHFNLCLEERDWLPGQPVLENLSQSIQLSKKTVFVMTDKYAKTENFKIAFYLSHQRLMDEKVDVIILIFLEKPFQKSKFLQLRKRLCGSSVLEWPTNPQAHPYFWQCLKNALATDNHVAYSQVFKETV
Experimental: The activation effect of the compound of the present application on the hTLR7 protein expressed in HEK-Blue™ hTLR7 stably transfected cells and hTLR8 protein expressed in HEK-Blue™ hTLR8 stably transfected cells were determined by the following experimental method:
The HEK-Blue assay medium was configured, HEK-Blue test dry powder was taken and 50 mL deendotoxin water were added to dissolve, then the resulting mixture was placed into the 37° C. incubator, and then filtered aseptically 10 minutes later. […]
The above-prepared compound was diluted 20-fold with a medium, and then 20 μL of the diluted compound were added to each well. HEK-Blue™ hTLR7 cells and HEK-Blue™ hTLR8 cells were taken separately, and the supernatant was removed first, then 2-5 mL pre-warmed PBS was added, placed in an incubator for 1-2 minutes, and the cells were gently pipetted, stained with trypan blue and counted. […]
The microplate reader reads at a wavelength of 620 nm. The corresponding OD value was obtained, and the EC50 value of the drug was calculated by Graphpad Prism. The activation effect of the compound of the present application and the control compound (prepared by the method of embodiment 21 of WO2016023511) on human TLR7 and TLR8 were determined by the above test, and the measured EC50 values were as shown in Table 1.

[1] = system: peripheral blood mononuclear cells (PBMC); assay: Stimulation of the secretion of IFN-α from PBMC (HTRF); assay type: cell-based, human; conditions: lowest concentration giving cytokine level at least 3 times the minimum detection limit; 24 hours
Experimental: The ability of the compound of the present application to stimulate the secretion of IFN-α from PBMC was determined by the following experimental method:
Compounds were diluted in pure DMSO at a maximum concentration of 5 mM in 4-fold gradients for a total of 9 points. Then 4 μL of the compound were taken and added to 196 μL of RMPI 1640 medium containing 10% FBS and mixed. 50 μL per well were taken and added into a new 96-well cell culture plate.
All reagents were equilibrated to room temperature, and a 250 mL culture flask was taken and 60 mL blood and PBS+2% FBS were added therein, and the mixture was gently diluted by pipetting. […] The cells were resuspend with RMPI 1640 medium containing 10% FBS and counted, adjusted the amount of PBMC to 3.33×10^6 cells/mL, and 150 μL were taken and added to the cell culture plate to which the compound had been added, and cultured at 37° C. in a 5.0% CO2 incubator for 24 hours. […]
It was read in the HTRF mode on the PHERAStar. […]
The ability of the compound of the present application and the control compound (prepared by the method of embodiment 21 of WO2016023511) to stimulate the secretion of IFN-α from PBMC were determined by the above test, and the measured MEC values were as shown in Table 2.

Row | SMILES | EC50 (human TLR7) [nM] | MEC (Minimal Effective Concentration) to stimulate the secretion of IFN-α from PBMC [1] [nM]
1 | CCCCOc1nc(N)c2[nH]nc(Cc3ccc(CN4CCCC4)cc3)c2n1 [Embodiment 1, 5-Butoxy-3-(4-(pyrrolidin-1-ylmethyl)benzyl)-1H-pyrazolo[4,3-d]pyrimidin-7-amine] | 53 | 0.28
2 | CCCCOc1nc(N)c2[nH]cc(Cc3ccc(CN4CCCC4)cc3)c2n1 [Embodiment 21 of WO2016023511] | 243 | 5.5
